Laboratory results from ChEMBL document CHEMBL5252509, “In depth analysis of kinase cross screening data to identify chemical starting points for inhibition of the Nek family of kinases” (Medchemcomm, 2018).

Tests used:
[1] = target: T1, Eukaryotic translation initiation factor 2-alpha kinase 3 (Homo sapiens, UniProt Q9NZJ5); assay: Inhibition of PERK (unknown origin)
T1 sequence (Q9NZJ5 whole entry): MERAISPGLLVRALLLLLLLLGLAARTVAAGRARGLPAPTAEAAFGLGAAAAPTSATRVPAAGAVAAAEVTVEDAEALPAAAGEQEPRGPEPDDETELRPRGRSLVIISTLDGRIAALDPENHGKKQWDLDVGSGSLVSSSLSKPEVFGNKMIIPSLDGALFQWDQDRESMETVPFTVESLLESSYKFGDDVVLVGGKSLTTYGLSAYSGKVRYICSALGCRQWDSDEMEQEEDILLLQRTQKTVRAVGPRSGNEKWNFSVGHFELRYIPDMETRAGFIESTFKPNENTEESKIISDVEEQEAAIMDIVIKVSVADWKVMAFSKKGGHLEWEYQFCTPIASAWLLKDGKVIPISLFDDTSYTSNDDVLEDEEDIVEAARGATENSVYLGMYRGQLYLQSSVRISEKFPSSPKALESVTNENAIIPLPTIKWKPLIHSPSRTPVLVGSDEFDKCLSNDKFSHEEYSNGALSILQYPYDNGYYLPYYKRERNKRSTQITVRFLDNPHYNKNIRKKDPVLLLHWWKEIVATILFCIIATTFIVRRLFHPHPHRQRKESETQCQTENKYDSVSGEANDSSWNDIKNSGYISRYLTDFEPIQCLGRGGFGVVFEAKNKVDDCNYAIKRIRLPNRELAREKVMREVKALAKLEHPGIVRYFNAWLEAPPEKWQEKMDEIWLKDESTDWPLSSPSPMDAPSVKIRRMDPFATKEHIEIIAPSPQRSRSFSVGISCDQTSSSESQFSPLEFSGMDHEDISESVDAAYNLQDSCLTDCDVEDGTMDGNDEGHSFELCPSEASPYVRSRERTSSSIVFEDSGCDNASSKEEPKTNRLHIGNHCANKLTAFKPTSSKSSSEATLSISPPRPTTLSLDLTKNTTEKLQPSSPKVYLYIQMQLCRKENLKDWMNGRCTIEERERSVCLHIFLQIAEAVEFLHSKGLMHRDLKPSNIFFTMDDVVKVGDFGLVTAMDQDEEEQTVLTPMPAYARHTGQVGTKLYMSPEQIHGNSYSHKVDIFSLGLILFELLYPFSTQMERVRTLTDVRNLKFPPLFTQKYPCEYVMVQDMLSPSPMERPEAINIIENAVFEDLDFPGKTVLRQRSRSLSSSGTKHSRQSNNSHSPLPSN

[2] = target: T2, Serine/threonine-protein kinase Nek2 (Homo sapiens) (UniProt P51955); assay: Inhibition of NEK2 (unknown origin) at 10 uM relative to control
T2 sequence (whole entry): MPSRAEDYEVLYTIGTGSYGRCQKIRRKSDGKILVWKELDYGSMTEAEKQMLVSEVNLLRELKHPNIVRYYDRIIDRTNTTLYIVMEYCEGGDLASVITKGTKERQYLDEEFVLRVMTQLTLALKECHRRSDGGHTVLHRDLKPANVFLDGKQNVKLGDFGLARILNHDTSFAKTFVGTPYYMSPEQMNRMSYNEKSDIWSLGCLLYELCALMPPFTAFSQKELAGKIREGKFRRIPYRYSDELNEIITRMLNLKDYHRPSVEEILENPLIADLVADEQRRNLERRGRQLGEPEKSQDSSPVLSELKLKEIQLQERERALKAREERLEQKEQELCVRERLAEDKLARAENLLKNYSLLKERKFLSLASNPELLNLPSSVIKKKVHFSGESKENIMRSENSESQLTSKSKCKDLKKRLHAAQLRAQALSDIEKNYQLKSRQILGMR

[3] = target: Mitogen-activated protein kinase 8 (Homo sapiens, UniProt P45983); assay: Inhibition of JNK1 (unknown origin)
[4] = target: Serine/threonine-protein kinase Nek2 (Homo sapiens, UniProt P51955); assay: Inhibition of NEK2 (unknown origin) assessed as dissociation constant
[5] = target: Serine/threonine-protein kinase Nek5 (Homo sapiens, UniProt Q6P3R8); assay: Inhibition of NEK5 (unknown origin) assessed as dissociation constant
[6] = target: T3, Serine/threonine-protein kinase Nek10 (Homo sapiens) (UniProt Q6ZWH5); assay: Inhibition of NEK10 (unknown origin) at 10 uM relative to control
T3 sequence (whole entry): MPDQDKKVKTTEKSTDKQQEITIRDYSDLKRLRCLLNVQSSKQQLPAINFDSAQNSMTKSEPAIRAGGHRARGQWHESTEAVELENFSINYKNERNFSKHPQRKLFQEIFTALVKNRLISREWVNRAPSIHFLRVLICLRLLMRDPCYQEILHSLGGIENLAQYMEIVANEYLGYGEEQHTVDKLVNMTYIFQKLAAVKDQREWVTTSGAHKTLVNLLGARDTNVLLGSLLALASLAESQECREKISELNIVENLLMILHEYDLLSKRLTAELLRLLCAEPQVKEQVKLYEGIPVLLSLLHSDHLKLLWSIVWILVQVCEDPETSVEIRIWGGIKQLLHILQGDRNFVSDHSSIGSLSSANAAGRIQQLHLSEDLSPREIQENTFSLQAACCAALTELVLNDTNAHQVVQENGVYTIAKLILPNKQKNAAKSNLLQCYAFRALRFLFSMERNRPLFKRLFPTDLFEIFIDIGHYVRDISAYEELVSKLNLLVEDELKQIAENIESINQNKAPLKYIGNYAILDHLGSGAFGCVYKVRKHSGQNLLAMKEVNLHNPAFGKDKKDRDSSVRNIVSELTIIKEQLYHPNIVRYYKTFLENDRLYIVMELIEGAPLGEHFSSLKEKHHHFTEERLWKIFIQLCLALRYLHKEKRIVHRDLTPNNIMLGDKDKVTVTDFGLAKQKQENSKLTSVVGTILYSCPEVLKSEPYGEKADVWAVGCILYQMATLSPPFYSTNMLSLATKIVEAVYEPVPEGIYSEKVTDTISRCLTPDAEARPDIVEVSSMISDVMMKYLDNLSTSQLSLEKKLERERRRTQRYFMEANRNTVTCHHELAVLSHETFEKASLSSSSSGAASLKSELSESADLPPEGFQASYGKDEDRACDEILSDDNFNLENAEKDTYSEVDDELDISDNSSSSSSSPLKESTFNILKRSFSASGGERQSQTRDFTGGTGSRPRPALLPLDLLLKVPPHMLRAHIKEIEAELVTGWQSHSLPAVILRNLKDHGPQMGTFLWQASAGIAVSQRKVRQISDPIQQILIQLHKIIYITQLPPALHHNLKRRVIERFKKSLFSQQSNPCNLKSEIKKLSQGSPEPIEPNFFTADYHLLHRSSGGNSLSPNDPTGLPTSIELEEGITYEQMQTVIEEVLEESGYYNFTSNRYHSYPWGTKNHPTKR

Serine/threonine-protein kinase Nek5, sequence (Q6P3R8 whole entry): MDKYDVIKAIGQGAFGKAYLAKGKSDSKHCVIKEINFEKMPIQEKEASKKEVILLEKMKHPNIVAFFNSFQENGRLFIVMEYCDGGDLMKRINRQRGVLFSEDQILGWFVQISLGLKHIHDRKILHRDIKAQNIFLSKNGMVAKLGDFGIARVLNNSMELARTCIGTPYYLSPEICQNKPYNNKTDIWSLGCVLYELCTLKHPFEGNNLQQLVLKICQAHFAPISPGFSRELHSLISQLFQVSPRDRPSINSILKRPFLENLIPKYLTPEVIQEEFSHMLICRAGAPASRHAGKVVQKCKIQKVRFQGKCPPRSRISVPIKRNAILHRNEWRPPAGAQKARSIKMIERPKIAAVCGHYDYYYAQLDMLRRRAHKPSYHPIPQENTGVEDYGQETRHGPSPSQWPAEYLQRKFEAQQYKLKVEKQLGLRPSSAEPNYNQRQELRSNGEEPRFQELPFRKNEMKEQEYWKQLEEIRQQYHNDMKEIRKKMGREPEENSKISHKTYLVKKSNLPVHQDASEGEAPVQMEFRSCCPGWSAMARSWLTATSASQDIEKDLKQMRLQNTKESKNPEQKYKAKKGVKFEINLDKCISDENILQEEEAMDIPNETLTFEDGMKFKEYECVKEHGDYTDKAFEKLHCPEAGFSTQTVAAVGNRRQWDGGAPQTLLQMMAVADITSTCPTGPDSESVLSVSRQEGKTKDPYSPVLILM
Mitogen-activated protein kinase 8, sequence (P45983 whole entry): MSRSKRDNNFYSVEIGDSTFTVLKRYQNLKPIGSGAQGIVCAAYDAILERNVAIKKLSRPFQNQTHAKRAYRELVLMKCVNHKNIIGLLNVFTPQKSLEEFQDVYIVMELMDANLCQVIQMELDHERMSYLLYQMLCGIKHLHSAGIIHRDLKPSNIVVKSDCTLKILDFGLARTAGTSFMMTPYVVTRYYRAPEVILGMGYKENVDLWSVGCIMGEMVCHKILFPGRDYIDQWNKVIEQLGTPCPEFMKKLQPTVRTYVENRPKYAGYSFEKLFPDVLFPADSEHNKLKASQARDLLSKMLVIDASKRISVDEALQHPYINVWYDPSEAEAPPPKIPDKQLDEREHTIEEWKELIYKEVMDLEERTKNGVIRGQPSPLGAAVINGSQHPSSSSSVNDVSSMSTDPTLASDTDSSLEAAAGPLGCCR

Compound | IC50 [1] [µM] | % control [2] [%] | also measured
Cc1ccc(CC(=O)N2CCc3cc(-c4cn(C)c5ncnc(N)c45)ccc32)cc1 | 0.017 |  | 
CN(C)C/C=C/C(=O)Nc1cccc(C(=O)Nc2ccc(Nc3nccc(-c4c(-c5ccccc5)nn5ccccc45)n3)cc2)c1 |  | 93 | 
Nc1nccc2scc(-c3ccc4c(c3)CCN4C(=O)Cc3ccccc3)c12 | < 0.015 |  | 
Cc1ccc(NC(=O)c2ccc(NC(=O)/C=C/CN(C)C)cc2)cc1Nc1nccc(-c2cccnc2)n1 |  | 100 | 
COc1cccc(C2=C(Nc3ccc(Cl)c(C(=O)O)c3)C(=O)NC2=O)c1 |  |  | Kd [4]: 0.46 µM
CN(C)C/C=C/C(=O)Nc1cccc(C(=O)Nc2ccc(Nc3nccc(/C(C#N)=C4\Nc5ccccc5S4)n3)cc2)c1 |  | 99 | 
Cc1cc(NC(=O)c2cccc(NC(=O)/C=C/CN(C)C)c2)ccc1Nc1nccc(-c2cccnc2)n1 |  | 100 | 
Nc1nccc2scc(-c3ccc4c(c3)CCN4C(=O)Cc3cc(F)ccc3F)c12 | < 0.015 |  | 
COc1cc(Nc2ncc3c(C)nc(-c4cc5ccccc5[nH]4)n3n2)cc(OC)c1OC |  |  | Kd [5]: 0.73 µM
O=C1NC(=O)/C(=C/c2ccc3nccc(-c4ccncc4)c3c2)S1 |  | 64 | % control [6]: 0%

Continued, in another order:

IC50 [1] [µM] | % control [2] [%] | Compound | also measured
 | 86 | CN(C)C/C=C/C(=O)Nc1cccc(C(=O)Nc2ccc(Nc3nccc(-c4cccnc4)n3)cc2)c1 | IC50 [3]: 0.041 µM
< 0.015 |  | Cn1cc(-c2cnc(N)c3c(-c4ccc5c(c4)CCN5C(=O)Cc4ccccc4)csc23)cn1 | 
 | 1.1 | CN(C)C/C=C/C(=O)Nc1ccc(C(=O)Nc2cccc(Nc3nccc(-c4cccnc4)n3)c2)cc1 | 
< 0.015 |  | Nc1ncc(-c2cn[nH]c2)c2scc(-c3ccc4c(c3)CCN4C(=O)Cc3ccccc3)c12 | 
 | 94 | Fc1cc(-c2cc[nH]/c(=N/c3ccc(-n4cnc(N5CCOCC5)n4)cc3)n2)cc(N2CCOCC2)c1 | 
